# Assays:
# [1] = system: AML-3 patients; settings: oral, alone; cited from earlier work
# [2] = system: human pro-myelocytic leukemia (HL-60 cells); experiment: Inhibition of proliferation of HL-60 cells, Trypan Blue cell counts; format: cell-based; settings: 1400 micrograms/ml
# Excerpt: […] Five ml of each pirfenidone concentration, and of the control were placed into a T25 tissue culture flask along with 1X10^5 cells. Every day for 4 days an aliquote from each flask was taken out, then stained with Trypan Blue, and counts were repeated three times on each aliquote.
# [3] = system: human T-cell leukemia (JURKAT) cells; experiment: Inhibition of proliferation of JURKAT cells, MTS assay; format: cell-based; settings: 900 mcg/ml, 72 hours, statistically significant, read-out: reduction in number of cell which were active
# Method: (§1) To determine the inhibitory effect of pirfenidone concentrations on human T-cell leukemia (JURKAT), a MTS assay was used which incorporates a tetrazolium dye that measures the cellular conversion of the dye into a formazan product by the activation of NADH-generating dehydrogenases found in metabolically active cells. Procedure: • 1. 100 microl. of cells was seeded into 96 well plates at 1X10^5 cells/ml in media containing 100 mcg/ml, 300 mcg/ml and 900 mcg/ml of pirfenidone, as well as a pirfenidone-free media control. • 2. Cells were incubated at 37 degrees C, at 5.0% CO2 for 72 hours. • 3. After incubation a standard curve was made of 100 microliters of cells added to the plate at 5X10^5 cells/ml making 1:2 dilutions all the way down to a pre-set degree of dilution. • 4. 2.0 mls of the MTS solution was mixed with a 100 microliter of the PMS solution, and 20 microliters of this combined dye solution was added to each well and incubated at 37 degrees C, 5.0% CO2 for 3 hours. • 5. Subsequently the absorbance was read at 490 nm.
# [4] = system: human Burkitt's lymphoma (RAJI) cells; experiment: Inhibition of proliferation of RAJI cells, MTS assay; format: cell-based; settings: 900 mcg/ml, 72 hours, statistically significant, read-out: reduction in number of cells which were active
# Method: To determine the inhibitory effect of pirfenidone concentrations on Burkitt's lymphoma (RAJI) cells, a MTS assay was used which incorporates a tetrazolium dye that measures the cellular conversion of the dye into a formazan product by the activation of NADH-generating dehydrogenases found in metabolically active cells.
# as §1, with “•” for “To determine the inhibitory effect of pirfenidone concentrations on human T-cell leukemia (JURKAT), a MTS assay was used which incorporates a tetrazolium dye that measures the cellular conversion of the dye into a formazan product by the activation of NADH-generating dehydrogenases found in metabolically active cells. Procedure: •”
# [5] = system: HUMAN LEIOMYOMA CELLS; experiment: Leiomyoma cell proliferation and viability, day 7 cell counts with Trypan Blue stain; format: cell-based; parameters: RECENT CELLS LEIOMYOMA: unit not given here; settings: for RECENT CELLS LEIOMYOMA: day 7 (control 0.0 MG: 9.0)
# Method: Leiomyoma tissues were obtained from several premenopausal women with symptomatic uterine fibroids at elective hysterectomy, and who were not receiving any hormonal or other drug therapy. The fibroid tissues were minced into 1 - 2 mm\# explants and placed in suitable DMEM supplemented with 10% bovine serum. The fibroid tissue was digested for 14 -18 hours at 37 degrees C in an incubator. After centrifugation, a resulting cell pellet was resuspended in DMEM and then placed in culture flasks.
# Leiomyoma cells were plated in 100mm dishes (100,000 each dish) and allowed to attach overnight in DMEM plus 10% fetal bovine serum until they reached 80-90% confluence.
SMILES,clinical outcome [1],Inhibition of proliferation as well as deaths of cells [2],inhibition at 900 µg/mL [3] [%],inhibition at 900 µg/mL [4] [%],RECENT CELLS LEIOMYOMA ([5]; 0.01 MG/ML),RECENT CELLS LEIOMYOMA ([5]; 0.1 MG/ML),RECENT CELLS LEIOMYOMA ([5]; 0.3 MG/ML),RECENT CELLS LEIOMYOMA ([5]; 1.0 MG/ML),"cytotoxicity at 1000 µg/mL ([5]; Homo sapiens, 168 h, read-out: percentage of dead leiomyoma cells) [%]","inhibitory effect on proliferation ([5]; graded concentrations in the culture media, 7 days)"
CC1=C(/C=C/C(C)=C/C=C/C(C)=C/C(=O)O)C(C)(C)CCC1 [All-trans-retinoic acid],complete remission,–,–,–,–,–,–,–,–,–
Cc1ccc(=O)n(-c2ccccc2)c1 [pirfenidone],–,deaths of almost all cells,75,45,8.0,10.0,6.0,16.0,16,significant inhibitory effect

# Reference: patent EP1242084B1, “TREATMENT OF BREAST CARCINOMAS, ASTROCYTOMAS, MELANOMAS AND RELATED TUMORS” (priority 2000, dated 2001)
